Test [1] addresses Cholinesterase (Homo sapiens, UniProt P06276). Nature of the test: Inhibition of human serum BuChE using butyrylthiocholine iodide as substrate preincubated with enzyme for 10 mins followed by substrate addition and measured by Ellman's method. In kind it is cell-free. On the technique in general: Ellman's reagent forms a yellow product with free thiols.
In test [2] the target is T1, Acetylcholinesterase (Homo sapiens, UniProt P22303).
Description: Inhibition of human recombinant AChE using acetylthiocholine iodide as substrate preincubated with enzyme for 10 mins followed by substrate addition and measured by Ellman's method
Test [3] has as its target T1, Acetylcholinesterase. Kind of test: Potency index, ratio of rivastigmine IC50 to test compound IC50 for human recombinant AChE using acetylthiocholine iodide as substrate preincubated with enzyme for 10 mins followed by substrate addition and measured by Ellman's method.

SMILES strings stand for the structures.

Cholinesterase, sequence (P06276 whole entry): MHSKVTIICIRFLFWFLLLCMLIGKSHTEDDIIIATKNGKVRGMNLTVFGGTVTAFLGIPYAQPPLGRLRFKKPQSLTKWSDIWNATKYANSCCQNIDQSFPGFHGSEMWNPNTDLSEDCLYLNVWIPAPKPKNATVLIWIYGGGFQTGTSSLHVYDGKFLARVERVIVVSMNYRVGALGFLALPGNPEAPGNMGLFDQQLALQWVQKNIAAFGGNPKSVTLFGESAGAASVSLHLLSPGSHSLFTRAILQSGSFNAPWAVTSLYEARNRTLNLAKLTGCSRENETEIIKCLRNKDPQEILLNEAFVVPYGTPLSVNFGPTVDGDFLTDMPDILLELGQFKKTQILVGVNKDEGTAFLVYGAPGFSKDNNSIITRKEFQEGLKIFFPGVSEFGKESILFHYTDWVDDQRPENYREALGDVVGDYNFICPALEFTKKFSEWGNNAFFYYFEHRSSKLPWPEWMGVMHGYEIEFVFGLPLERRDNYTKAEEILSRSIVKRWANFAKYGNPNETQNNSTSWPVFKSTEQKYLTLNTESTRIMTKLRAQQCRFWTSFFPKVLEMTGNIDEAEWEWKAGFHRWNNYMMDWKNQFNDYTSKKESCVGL
T1 sequence (P22303 whole entry): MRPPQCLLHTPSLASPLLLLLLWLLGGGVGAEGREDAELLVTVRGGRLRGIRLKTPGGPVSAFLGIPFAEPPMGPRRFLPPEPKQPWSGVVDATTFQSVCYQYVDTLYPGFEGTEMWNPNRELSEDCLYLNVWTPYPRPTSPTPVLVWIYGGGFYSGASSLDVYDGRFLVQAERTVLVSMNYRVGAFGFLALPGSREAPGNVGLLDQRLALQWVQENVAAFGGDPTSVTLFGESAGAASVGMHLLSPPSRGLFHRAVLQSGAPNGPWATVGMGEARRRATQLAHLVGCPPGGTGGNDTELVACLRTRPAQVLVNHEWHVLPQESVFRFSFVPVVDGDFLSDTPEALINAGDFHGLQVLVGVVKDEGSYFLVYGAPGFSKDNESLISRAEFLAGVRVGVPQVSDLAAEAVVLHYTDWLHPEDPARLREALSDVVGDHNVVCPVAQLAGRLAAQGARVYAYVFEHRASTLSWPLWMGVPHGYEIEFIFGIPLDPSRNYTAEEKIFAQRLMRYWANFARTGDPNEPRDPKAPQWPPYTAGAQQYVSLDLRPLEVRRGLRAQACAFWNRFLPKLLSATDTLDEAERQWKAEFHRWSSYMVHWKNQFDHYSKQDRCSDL

Broadly, the IC50 is the concentration at which inhibition is half-maximal. Broadly, the Ki is a dissociation constant, usually derived from enzyme kinetics or from competition with a known ligand. In test [1], `Cc1ccc(S(=O)(=O)SCc2ccc([N+](=O)[O-])cc2)cc1` had an IC50 of 214 nM and a Ki of 303 nM. In test [2], 212 nM corresponded to half-maximal inhibition (IC50) and the Ki was 251 nM.

Turning to `Cc1ccc(S(=O)(=O)SCc2ccc(C(F)(F)F)cc2)cc1`, in test [1], the IC50 was 118 nM and the Ki worked out at 103 nM. Moreover, in test [2], the IC50 came to 86.6 nM and the Ki worked out at 148 nM.

With `Cc1ccc(S(=O)(=O)SCc2ccc(F)cc2)cc1`, the IC50 in test [1] turned out to be 303 nM; in test [2], 313 nM. Further, the Ki in test [1] was determined as 208 nM; in test [2], 327 nM.

In test [1], `Cc1ccc(S(=O)(=O)SCc2ccc(Cl)cc2)cc1` yielded an IC50 of 315 nM and a Ki of 199 nM. In test [2], this compound showed a half-inhibitory concentration (IC50) of 478 nM and a Ki of 714 nM.

As for `COc1ccc(CSS(=O)(=O)c2ccc(C)cc2)cc1`, in test [1], half-maximal inhibition (IC50) required 202 nM and the Ki was determined as 251 nM. In test [2], the IC50 was found to be 488 nM and the inhibitory constant (Ki) came to 219 nM.

Take `Cc1ccc(S(=O)(=O)SCc2ccc(C(C)C)cc2)cc1`: the Ratio IC50 in test [3] was found to be 5. Besides, in test [1], the IC50 is 84.5 nM and the Ki is 37.9 nM. In test [2], this compound gave an IC50 of 11.9 nM and a Ki of 25.6 nM.

On to `Cc1ccc(S(=O)(=O)SCc2ccc(C#N)cc2)cc1`, for which, in test [1], the IC50 is 203 nM and the Ki was 201 nM. Also, in test [2], the IC50 was found to be 196 nM and the Ki came to 166 nM.

Consider `Cc1ccc(S(=O)(=O)SCc2ccc(OC(F)(F)F)cc2)cc1`, for which, in test [1], the IC50 amounted to 53.3 nM and the Ki worked out at 17.5 nM. In test [2], this compound registered an IC50 of 129 nM and a Ki of 198 nM.

In test [1], `Cc1ccc(S(=O)(=O)SCc2ccccc2)cc1` yielded an IC50 of 318 nM and a Ki of 218 nM. Besides, in test [2], the IC50 came to 517 nM and the affinity, expressed as Ki, was 390 nM.

The values above are taken from ChEMBL document CHEMBL4819136, “Design and synthesis of garlic-related unsymmetrical thiosulfonates as potential Alzheimer's disease therapeutics: In vitro and in silico study” (Bioorg Med Chem, 2021).
